# According to article PMC11374673, “Discovery of isoquinoline sulfonamides as allosteric gyrase inhibitors with activity against fluoroquinolone-resistant bacteria” (Nature Chemistry, 2024):
# Key:
# E. coli W3110 [1] = test: MIC by broth microdilution; assay type: cell-based, Escherichia coli; conditions: Escherichia coli
# In short: (§1)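 Exponential-phase cultures (OD600 0.5, 37 °C aerobic), diluted 100-fold in CAMHB, were added to twofold compound dilution series. Keio strains grown with 50 µg ml^−1 kanamycin. Plates incubated overnight at 37 °C, shaking at 600 r.p.m.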
# E. coli W3110 [2] = test: Checkerboard assay with PMBN;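 on checkerboard plate reading, Average values: OD600 read after 20 h incubation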
# K. pneumoniae ATCC 29665 = test: MIC by broth microdilution; assay type: cell-based, Klebsiella pneumoniae; conditions: Klebsiella pneumoniae, ATCC29665, read-out: MIC K. pneumoniae ATCC 29665
# In short: as §1
smiles,measurement,setting,value
"O=C(O)c1cn(C2CC2)c2cc(N3CCNCC3)c(F)cc2c1=O [CIP, ciprofloxacin]",MIC,E. coli W3110 [1]; W3110,7.8 ng/mL
same,MIC,"E. coli W3110 [1]; W3110, read-out: MIC E. coli WT strain",0.024 µM
same,"checkerboard plate reading, Average values",E. coli W3110 [2]; Ciprofloxacin 1.5625 nM + PMBN 1 µM,0.8906
same,"checkerboard plate reading, Average values",E. coli W3110 [2]; Ciprofloxacin 1.5625 nM + PMBN 2 µM,0.8911
same,"checkerboard plate reading, Average values",E. coli W3110 [2]; Ciprofloxacin 1.5625 nM + PMBN 4 µM,0.726
same,"checkerboard plate reading, Average values",E. coli W3110 [2]; Ciprofloxacin 1.5625 nM + PMBN 8 µM,0.6303
same,"checkerboard plate reading, Average values",E. coli W3110 [2]; Ciprofloxacin 3.125 nM + PMBN 0 µM,0.9278
same,"checkerboard plate reading, Average values",E. coli W3110 [2]; Ciprofloxacin 3.125 nM + PMBN 0.5 µM,0.8723
same,"checkerboard plate reading, Average values",E. coli W3110 [2]; Ciprofloxacin 3.125 nM + PMBN 1 µM,0.849
same,"checkerboard plate reading, Average values",E. coli W3110 [2]; Ciprofloxacin 3.125 nM + PMBN 2 µM,0.8236
same,"checkerboard plate reading, Average values",E. coli W3110 [2]; Ciprofloxacin 3.125 nM + PMBN 4 µM,0.7354
same,"checkerboard plate reading, Average values",E. coli W3110 [2]; Ciprofloxacin 3.125 nM + PMBN 8 µM,0.666
same,"checkerboard plate reading, Average values",E. coli W3110 [2]; Ciprofloxacin 3.125 nM + PMBN 16 µM,0.8076
same,"checkerboard plate reading, Average values",E. coli W3110 [2]; Ciprofloxacin 3.125 nM + PMBN 32 µM,0.5963
same,"checkerboard plate reading, Average values",E. coli W3110 [2]; Ciprofloxacin 6.25 nM + PMBN 0 µM,0.8608
same,"checkerboard plate reading, Average values",E. coli W3110 [2]; Ciprofloxacin 6.25 nM + PMBN 0.5 µM,0.801
same,"checkerboard plate reading, Average values",E. coli W3110 [2]; Ciprofloxacin 6.25 nM + PMBN 1 µM,0.7994
same,"checkerboard plate reading, Average values",E. coli W3110 [2]; Ciprofloxacin 6.25 nM + PMBN 2 µM,0.8003
same,"checkerboard plate reading, Average values",E. coli W3110 [2]; Ciprofloxacin 6.25 nM + PMBN 4 µM,0.7289
same,"checkerboard plate reading, Average values",E. coli W3110 [2]; Ciprofloxacin 6.25 nM + PMBN 8 µM,0.6534
same,"checkerboard plate reading, Average values",E. coli W3110 [2]; Ciprofloxacin 6.25 nM + PMBN 16 µM,0.5862
same,"checkerboard plate reading, Average values",E. coli W3110 [2]; Ciprofloxacin 6.25 nM + PMBN 32 µM,0.4866
same,"checkerboard plate reading, Average values",E. coli W3110 [2]; Ciprofloxacin 12.5 nM + PMBN 0 µM,0.8404
same,"checkerboard plate reading, Average values",E. coli W3110 [2]; Ciprofloxacin 12.5 nM + PMBN 0.5 µM,0.7355
same,"checkerboard plate reading, Average values",E. coli W3110 [2]; Ciprofloxacin 12.5 nM + PMBN 1 µM,0.7301
same,"checkerboard plate reading, Average values",E. coli W3110 [2]; Ciprofloxacin 12.5 nM + PMBN 2 µM,0.723
same,"checkerboard plate reading, Average values",E. coli W3110 [2]; Ciprofloxacin 12.5 nM + PMBN 4 µM,0.67
same,"checkerboard plate reading, Average values",E. coli W3110 [2]; Ciprofloxacin 12.5 nM + PMBN 8 µM,0.5682
same,"checkerboard plate reading, Average values",E. coli W3110 [2]; Ciprofloxacin 12.5 nM + PMBN 16 µM,0.6754
same,"checkerboard plate reading, Average values",E. coli W3110 [2]; Ciprofloxacin 12.5 nM + PMBN 32 µM,0.5017
same,"checkerboard plate reading, Average values",E. coli W3110 [2]; Ciprofloxacin 25 nM + PMBN 0 µM,0.4892
same,"checkerboard plate reading, Average values",E. coli W3110 [2]; Ciprofloxacin 25 nM + PMBN 0.5 µM,0.5201
same,"checkerboard plate reading, Average values",E. coli W3110 [2]; Ciprofloxacin 25 nM + PMBN 1 µM,0.4961
same,"checkerboard plate reading, Average values",E. coli W3110 [2]; Ciprofloxacin 25 nM + PMBN 2 µM,0.4386
same,"checkerboard plate reading, Average values",E. coli W3110 [2]; Ciprofloxacin 25 nM + PMBN 4 µM,0.4173
same,"checkerboard plate reading, Average values",E. coli W3110 [2]; Ciprofloxacin 25 nM + PMBN 8 µM,0.2541
same,"checkerboard plate reading, Average values",E. coli W3110 [2]; Ciprofloxacin 25 nM + PMBN 16 µM,0.196
same,"checkerboard plate reading, Average values",E. coli W3110 [2]; Ciprofloxacin 25 nM + PMBN 32 µM,0.2103
same,"checkerboard plate reading, Average values",E. coli W3110 [2]; Ciprofloxacin 50 nM + PMBN 0 µM,0.1991
same,"checkerboard plate reading, Average values",E. coli W3110 [2]; Ciprofloxacin 50 nM + PMBN 0.5 µM,0.2079
same,"checkerboard plate reading, Average values",E. coli W3110 [2]; Ciprofloxacin 50 nM + PMBN 1 µM,0.2136
same,"checkerboard plate reading, Average values",E. coli W3110 [2]; Ciprofloxacin 50 nM + PMBN 2 µM,0.1771
same,"checkerboard plate reading, Average values",E. coli W3110 [2]; Ciprofloxacin 50 nM + PMBN 4 µM,0.1678
same,"checkerboard plate reading, Average values",E. coli W3110 [2]; Ciprofloxacin 50 nM + PMBN 8 µM,0.1671
same,"checkerboard plate reading, Average values",E. coli W3110 [2]; Ciprofloxacin 50 nM + PMBN 16 µM,0.1685
same,"checkerboard plate reading, Average values",E. coli W3110 [2]; Ciprofloxacin 50 nM + PMBN 32 µM,0.1738
same,MIC,"E. coli W3110 [2]; Escherichia coli, W3110",0.05 µM
same,MIC E. coli + 8 μM PMBN,E. coli W3110 [2]; LPS disruption (pharmacological),0.024 µM
same,synergy with PMBN,E. coli W3110 [2]; checkerboard,does not have an effect and none
same,MSC,"E. coli W3110 [2]; checkerboard with PMBN, E. coli W3110",0.025 µM
same,MIC,K. pneumoniae ATCC 29665,0.012 µM
